We go through four molecules from patent publication US20220145406A1, “BIOMARKERS, AND USES IN TREATMENT OF VIRAL INFECTIONS, INFLAMMATIONS, OR CANCER” (ABIVAX, priority 2018, published 2022).

The test system of this experiment is miR-124. The experiment can be described thus: miR-124 (RT-q)PCR in PBMCs, CD4+ and CD8+ T cells, macrophages. In kind it is cell-based, human. To be noted: PBMCs treated with antiretrovirals. The protocol:
Buffy coats from HIV-negative individuals were obtained from the local blood donation center in Centre de transfusion sanguine Montpellier. Human peripheral blood mononuclear cells (PBMCs) were isolated by Ficoll (Histopaque, Sigma) gradient centrifugation. CD4+ and CD8+ T cells were purified from PBMCs after Ficoll gradient centrifugation by Human CD4+ beads positive selection and CD8+ beads positive selection, respectively (Miltenyi). PBMCs, CD4+ and CD8+ T cells were grown at 37° C. and 5% CO2 to a density of 1.5×10^6 cells/ml in RPMI GlutaMAX medium (Life Technologies) supplemented with 10% fetal calf serum (FCS) (Thermo Fisher), 40 U/ml of IL2 (PeproTech) and 5 μg/mL of PHA (Roche) for 2 days. Three days later, cells were resuspended at 1.5×10^6 cells/ml in RPMI supplemented with 10% FCS and 40 U/ml IL2 and separated into two parts (infected and uninfected cells). Cells were infected with 80 ng of p24/106 cells of the YU-2 strain for 4 to 6 hours and then rinsed with PBS before medium renewal.
Both infected and uninfected cells were then centrifuged and resuspended to a density of 1.5×10^6 cells/ml in medium supplemented with diluted drug solubilized in DMSO (Sigma) to a final 0.05% DMSO concentration or antiretroviral compounds according to the manufacturer's instructions. Cells were treated for 6 days with a medium renewal at day 3. HIV p24 titration was performed by ELISA from cell culture supernatants with Innotest kit (Ingen) according to the manufacturer's instructions.
To generate monocyte-derived macrophages, monocytes were isolated using CD14+ positive microbeads (Miltenyi) and cultured in X-VIVO 10 medium (Lonza) supplemented with 10 mM HEPES, 1 mM sodium pyruvate, 1% non-essential amino acids, 10% FBS, 10 ng/ml GM-CSF and 100 ng/ml M-CSF for 7 days with medium renewal at day 3. After 7 days of differentiation, the cells were washed, plated in 6-well plates and incubated for 24 hours in medium without cytokine addition. Cells were treated for 6 days with a partial medium change at day 3.
miRNAs were extracted from PBMCs, CD4+ or CD8+ T cells using the NucleoSpin miRNeasy kit (Macherey-Nagel) according to the manufacturer's instructions. miRNA reverse transcription (RT) was performed using the miScript II RT kit (Qiagen). […] The relative levels of miR-124 were calculated using the 2^−ΔΔCt method.
Total RNA was extracted from macrophages using the Macherey-Nagel NucleoSpin miRNeasy kit. miRNA reverse transcription (RT) was performed on 2 μl of total RNA according to the Applied Biosystems TaqMan Advanced miRNA assays protocol for TaqMan qPCR. […] PCR runs were analyzed with Applied Biosystems ViiA 7 software.
For `CC(C)CN(C[C@@H](O)[C@H](Cc1ccccc1)NC(=O)O[C@H]1CO[C@H]2OCC[C@H]21)S(=O)(=O)c1ccc(N)cc1` [darunavir], the “miR-124 expression compared to untreated cells (DMSO)” value is on record as “did not upregulate”.
On to `O=C1Nc2ccc(Cl)cc2[C@@](C#CC2CC2)(C(F)(F)F)O1` [efavirenz], for which the “miR-124 expression compared to untreated cells (DMSO)” value is given as “did not upregulate”.
For the molecule maraviroc, the “miR-124 expression compared to untreated cells (DMSO)” value is given as “did not upregulate”.
Turning to `Cc1cn([C@H]2C[C@H](N=[N+]=[N-])[C@@H](CO)O2)c(=O)[nH]c1=O` [AZT], the “miR-124 expression compared to untreated cells (DMSO)” value is given as “did not upregulate”.
